Patent US20090227612A1, “Aminopyrimidine Derivatives Inhibiting Protein Kinase Activity, Method For The Preparation Thereof And Pharmaceutical Composition Containing Same” (priority 2005, published 2009)
pEC50, pIC50: −log10 of the molar value. Where two headings read alike, the source gives them in different places.

Experiments:
[1] = test system: human colon carcinoma cell line, HCT116; assay: Cancer cell proliferation, SRB assay; assay type: cell-based; conditions: HCT116, 48 hours, concentration inhibiting cancer cell proliferation by 50%
Description: (§1) In order to examine the suppressive effect of the inventive aminopyrimidine derivatives on the proliferation of cancer cells through inhibiting the protein kinase activity, a test was performed as follows by employing human colon carcinoma cell line, HCT116 (Korean Cell Line Bank, KCLB10247) and human fetal cell line, MRC-5 (Korean Cell Line Bank, KCLB10171).
(§2) HCT116 and MRC-5 cells were plated into the wells of a 96-well plate containing DMEM (Dulbecco's Modified Eagle Medium) medium at a concentration ranging from 1×10^3 to 3×10^3 cells/well, and cultured under conditions of 5% CO2 and 37° C. for 24 hours. Then, the test compounds of Examples 85 to 88, 97 to 99, 105 to 110 and 115 to 118, and a comparative compound, N-(4-(4-(5-methyl-1H-pyrrole-3-yl-amino)-6-(4-methylpiperazin-1-yl)-1,3,5-triazin-2-ylthio) cyclopropane carboxyamide were added thereto in an amount of 0.2, 1, 5, 25 and 100 μM, respectively. The control was not treated with any compound. The cells were cultured for 48 hours.
(§3) After removing the medium from each wells, the cells were washed about 3 times with phosphate-buffered saline (PBS, pH 7.4), followed by fixing with 50% TCA (trichloroacetic acid) refrigerant solution in an amount of 50 μl/well at 4° C. for 1 hour. The fixed cells were washed 5 times with distilled water and dried in the air, and stained with 50 μl/well of 1% acetic acid containing 0.4% SRB (sulforhodamine B) solution at room temperature for 1 hour. The stained cells were washed 5 times with 1% acetic acid and dried in the air, 150 μl/well of 10 mM Tris-HCl (pH 10.5) were added thereto, and the absorbance of each well was measured at 540 nm. The suppressive value of each compound for cell proliferation was calculated based on the absorbance of the control well, and the results are shown in Table 2. In Table 2, EC50 (μM) was determined as a concentration of the test compound required to inhibit cancer cell proliferation by 50% relative to the control, CC50 (μM) was determined as a concentration of the test compound required to inhibit normal cell proliferation by 50% relative to the control, and the therapeutic index was determined as the value of CC50(μM)/EC50(μM).

[2] = target: T1, Aurora A (Homo sapiens, UniProt O14965); assay: Aurora A kinase activity assay (Kemptide substrate, Kinase-Glo residual ATP); assay type: biochemical; conditions: recombinant Aurora A 10 nM, ATP 1 μM, Kemptide 100 μM, 30° C. 1 hour
T1 construct: purchased Upstate
T1 sequence (O14965 1-403): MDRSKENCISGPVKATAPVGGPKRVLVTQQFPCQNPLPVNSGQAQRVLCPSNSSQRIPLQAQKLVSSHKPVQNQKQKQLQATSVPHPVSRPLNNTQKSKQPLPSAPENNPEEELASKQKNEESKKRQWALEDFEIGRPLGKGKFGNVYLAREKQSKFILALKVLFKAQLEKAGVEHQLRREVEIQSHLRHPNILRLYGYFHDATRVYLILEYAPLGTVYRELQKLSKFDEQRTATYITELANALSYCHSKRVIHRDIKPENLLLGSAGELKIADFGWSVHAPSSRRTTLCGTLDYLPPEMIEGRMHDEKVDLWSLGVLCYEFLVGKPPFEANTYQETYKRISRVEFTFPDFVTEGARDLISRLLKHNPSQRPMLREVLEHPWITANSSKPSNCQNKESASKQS
Description: Further, the test compounds and comparative compound were successively diluted with dimethyl sulfoxide (DMSO) from an initial concentration of 12.5 mM to obtain test solutions and DMSO was used as a control solution. Less than 5% of each test solution or control solution was added to a reaction solution containing 20 mM HEPES (pH 7.5), 5 mM MgCl2, 0.5 mM EGTA, 200 mM KCl, 1 mM DTT and 0.05% triton X-100, and 100 μM of Kemptide peptide (PEPTRON), which is a substrate of aurora kinase, 1 μM of ATP and 10 nM of Aurora A (Upstate), which is a recombinant aurora kinase, were added thereto, followed by reacting each mixture at 30° C. for 1 hour. 25 μl of each reacted solution was mixed with 25 μl of Kinase-Glo™ (promega), and reacted at room temperature for 10 minutes, and the amount of residual ATP therein was measured using Fusion a-FP (Packard). Enzymic activity in each reacted solution was analyzed based on the measured value, and IC50 (μM) was determined as a concentration of the test compound required to inhibit the kinase activity by 50% relatively to the control solution, and the results are shown in Table 2.

[3] = Normal cell proliferation, SRB assay; assay type: cell-based, human; conditions: human, CC50(μM)
Description: as §1, §2, §3

[4] = test system: human fetal cell line, MRC-5; assay: Normal cell proliferation, SRB assay; assay type: cell-based
Description: as §1, §2, §3

Row | Compound | pEC50 ([1]; Homo sapiens, HCT-116, 48 h) | pIC50 [2] | CC50 at 48 h [3] [µM] | pEC50 [1] | CC50 ([4]; human, 48 h) [nM] | CC50 [4] [nM] | CC50 ([4]; MRC-5, 48 hours, concentration inhibiting normal cell proliferation by 50%, read-out: CC50) [nM]
1 | CC1(C)C2CCC1(C)C(NC(=O)c1ccnc(Nc3ccc(N4CCCCC4)cc3)n1)C2 (stereo not drawn) [Compound 85, 2-(4-(piperidine-1-yl)phenylamino)-N-(1,7,7-trimethylbicyclo[2.2.1]heptane-2-yl)pyrimidine-4-carboxyamide] | 5.80 | 7.48 | 38 | – | – | – | –
2 | CN(C)CCNc1ccc(Nc2nccc(C(=O)NC3CC4CCC3(C)C4(C)C)n2)cc1 (stereo not drawn) [Compound 86] | 5.92 | 7.06 | > 100 | – | – | – | –
3 | CC1(C)C2CCC1(C)C(NC(=O)c1ccnc(Nc3ccc(NCCN4CCCC4)cc3)n1)C2 (stereo not drawn) [Compound 88, 2-(4-(2-(pyrrolidine-1-yl)ethylamino)phenyl-amino)-N-(1,7,7-trimethylbicyclo[2.2.1]heptane-2-yl)pyrimidine-carboxamide] | 6.10 | 8.00 | 24.5 | – | – | – | –
4 | CC1(C)C2CCC1(C)C(NC(=O)c1ccnc(Nc3cccc(NCCCN4CCOCC4)c3)n1)C2 (stereo not drawn) [Compound 97, 2-(3-(3-morpholinopropylamino)phenylamino)-N-(1,7,7-trimethylbicyclo[2.2.1]hep-tan-2-yl)pyrimidine-4-carboxyamide] | 5.51 | 7.30 | > 100 | – | – | – | –
5 | CC1(C)C2CCC1(C)C(NC(=O)c1ccnc(Nc3cccc(NCCCN4CCOCC4)c3)n1)C2 (stereo not drawn) [Compound 98, 2-(3-(3-morpholinopropylamino)phenylamino)-N-(1,7,7-trimethylbicyclo[2.2.1]hep-tan-2-yl)pyrimidine-4-carboxyamide] | – | 7.41 | – | 5.49 | 52600 | – | –
6 | COc1ccc(Nc2nccc(C(=O)NC3CC4CCC3(C)C4(C)C)n2)cc1OCCN1CCOCC1 (stereo not drawn) [Compound 99, 2-(4-methoxy-3-(2-morpholinoethoxy)phenyl-amino)-N-(1,7,7-trimethylbicyclo[2.2.1]hep-tan-2-yl)pyrimidine-4-carboxyamide] | 5.70 | 7.64 | 52 | – | – | – | –
7 | CCN1CCN(c2ccc(Nc3nccc(C(=O)NC4CC5CCC4(C)C5(C)C)n3)cc2)CC1 (stereo not drawn) [Compound 105, 2-(4-(4-ethylpiperazin-1-yl)phenylamino)-N-(1,7,7-trimethylbicyclo[2.2.1]hep-tan-2-yl)pyrimidine-4-carboxyamide] | 6.30 | 7.77 | > 100 | – | – | – | –
8 | CCN(CC)CCOc1cc(Nc2nccc(C(=O)NC3CC4CCC3(C)C4(C)C)n2)ccc1OC (stereo not drawn) [Compound 106, 2-(3-(2-(diethylamino)ethoxy)-4-methoxyphenylamino)-N-(1,7,7-trimethylbicyclo[2.2.1]hep-tan-2-yl)pyrimidine-4-carboxyamide] | – | 7.96 | – | 6.05 | – | 33000 | –
9 | COc1ccc(Nc2nccc(C(=O)NC3CC4CCC3(C)C4(C)C)n2)cc1OCCN1CCCC1 (stereo not drawn) [Compound 107, 2-(4-methoxy-3-(2-(pyrrolidin-1-yl)ethoxy)phenylamino)-N-(1,7,7-trimethylbicyclo[2.2.1]hep-tan-2-yl)pyrimidine-4-carboxyamide] | 5.92 | 7.74 | 46 | – | – | – | –
10 | CC1(C)C2CCC1(C)C(NC(=O)c1ccnc(Nc3ccc(N4CCN(CCO)CC4)cc3)n1)C2 (stereo not drawn) [Compound 108, 2-(4-(4-(2-hydroxyethyl)piperazin-1-yl)phenylamino)-N-(1,7,7-trimethylbicyclo[2.2.1]hep-tan-2-yl)pyrimidine-4-carboxyamide] | 5.72 | 8.00 | 56 | – | – | – | –
11 | CC(C)N1CCN(c2ccc(Nc3nccc(C(=O)NC4CC5CCC4(C)C5(C)C)n3)cc2)CC1 (stereo not drawn) [Compound 109, 2-(4-(4-isopropylpiperazin-1-yl)phenylamino)-N-(1,7,7-trimethylbicyclo[2.2.1]hep-tan-2-yl)pyrimidine-4-carboxyamide] | 5.55 | 7.70 | 23.5 | – | – | – | –
12 | CCCN1CCN(c2ccc(Nc3nccc(C(=O)NC4CC5CCC4(C)C5(C)C)n3)cc2)CC1 (stereo not drawn) [Compound 110, 2-(4-(4-propylpiperazin-1-yl)phenylamino)-N-(1,7,7-trimethylbicyclo[2.2.1]hep-tan-2-yl)pyrimidine-4-carboxyamide] | 5.72 | 7.70 | 32 | – | – | – | –
13 | CC(C)CN1CCN(c2ccc(Nc3nccc(C(=O)NC4CC5CCC4(C)C5(C)C)n3)cc2)CC1 (stereo not drawn) [Compound 115, 2-(4-(4-isobutylpiperazin-1-yl)phenylamino)-N-(1,7,7-trimethylbicyclo-[2.2.1]heptan-2-yl)pyrimidine-4-carboxyamide] | 5.51 | 7.03 | 100 | – | – | – | –
14 | CC1(C)C2CCC1(C)C(NC(=O)c1ccnc(Nc3ccc(N4CCN(CC#N)CC4)cc3)n1)C2 (stereo not drawn) [Compound 116, 2-(4-(4-(cianomethyl)piperazin-1-yl)phenylamino)-N-(1,7,7-trimethylbicyclo [2.2.1]heptan-2-yl)pyrimidine-4-carboxyamide] | 5.77 | 7.92 | 26.6 | – | – | – | –
15 | CC1(C)C2CCC1(C)C(NC(=O)c1ccnc(Nc3cccc(NCC#N)c3)n1)C2 (stereo not drawn) [Compound 118, 2-(3-(cianomethylamino)phenylami-no)-N-(1,7,7-trimethylbicyclo-[2.2.1]heptane-2-yl)pyrimidine-4-carboxyamide] | 5.55 | 7.72 | 62.5 | – | – | – | –
16 | N-(4-(4-(5-methyl-1H-pyrrole-3-yl-amino)-6-(4-methylpiperazin-1-yl)-1,3,5-triazin-2-ylthio) cyclopropane carboxyamide [Comparative compound, reference compound] | – | 7.72 | – | 5.52 | – | – | 33000
